Data from US11613547B2 (priority 2019, dated 2023).
“Also recorded” adds a separate entry of the source.

How the values were obtained:
hMOR [1] = molecular target: T1, hMOR (Homo sapiens, UniProt P35372); assay: Tango β-arrestin recruitment assay, hMOR; type: cell-based
T1 construct: expressed in transfected cells; host or cells: HEK 293T (ATCC CRL-11268), transient

hMOR [2] = molecular target: T1, hMOR; assay: cell-based; type: cell-based; settings: for Emax: HEK-293T, read-out: Gi Emax hMOR; for EC50: read-out: Gi EC50 hMOR
hKOR [3] = molecular target: T2, hKOR (Homo sapiens, UniProt P41145); assay: cAMP inhibition assay (GloSensor, HEK 293T), hKOR; type: cell-based; settings: for Emax: HEK-293T, read-out: Gi Emax hKOR; for Bias factor toward G protein, hKOR: cAMP inhibition vs Tango, against U50,488H as control
T2 construct: expressed in transfected cells; host or cells: HEK 293T (ATCC CRL-11268), transient

hKOR [4] = molecular target: T2, hKOR; assay: Tango β-arrestin recruitment assay, hKOR; type: cell-based; settings: for Arrestin pEC50±SEM hKOR / EC50: Tango, WT-hKOR
mMOR [5] = molecular target: T3, mMOR (Mus musculus, UniProt P42866); assay: Radioligand competition binding ([125I]IBNtxA), CHO membranes, mMOR; settings: vs 125IBNtxA (0.1 nM), mean ± SEM
T3 construct: expressed in transfected cells

mDOR [6] = molecular target: T4, mDOR (Mus musculus, UniProt P32300); assay: Radioligand competition binding ([125I]IBNtxA), CHO membranes, mDOR; settings: vs 125IBNtxA (0.1 nM), CHO membranes, mean ± SEM
T4 construct: expressed in transfected cells

mDOR [7] = molecular target: T4, mDOR; assay: [35S]GTPγS functional assay, mDOR; type: biochemical
[8] = molecular target: T5, rat kappa opioid receptor (rKOR) (Rattus norvegicus, UniProt P34975); assay: BRET assay, arrestin recruitment, rKOR; type: cell-based; settings: BRET
T5 construct: expressed in transfected cells; host or cells: HEK-293T, transient (PEI), with BRET sensor cDNAs

hDOR [9] = molecular target: T6, hDOR (Homo sapiens, UniProt P41143); assay: cAMP inhibition assay, hDOR; type: cell-based; design: expressed in transfected cells
[10] = molecular target: T5, rat kappa opioid receptor (rKOR); assay: BRET assay, G-protein activation, rKOR; type: cell-based
[11] = molecular target: T7, mouse mu opioid receptor (mMOR) (Mus musculus, UniProt P42866); assay: cell-based; type: cell-based
T7 construct: expressed in transfected cells; host or cells: HEK-293T, transient (PEI), with BRET sensor cDNAs

[12] = molecular target: T7, mouse mu opioid receptor (mMOR); assay: cell-based; type: cell-based; remark: listed apart in the source
mKOR [13] = molecular target: T8, mKOR (Mus musculus, UniProt P33534); assay: [35S]GTPγS functional assay, mKOR; type: biochemical
T8 construct: expressed in transfected cells

[14] = molecular target: T9, mouse delta opioid receptor (mDOR) (Mus musculus, UniProt P32300); assay: BRET assay, G-protein activation, mDOR; type: cell-based
T9 construct: expressed in transfected cells; host or cells: HEK-293T, transient (PEI), with BRET sensor cDNAs

mMOR [15] = molecular target: T3, mMOR; assay: [35S]GTPγS functional assay, mMOR; type: biochemical
mKOR [16] = molecular target: T8, mKOR; assay: Radioligand competition binding ([125I]IBNtxA), CHO membranes, mKOR; settings: vs 125IBNtxA (0.1 nM), mean ± SEM
hDOR [17] = molecular target: T6, hDOR; assay: Tango β-arrestin recruitment assay, hDOR; type: cell-based; design: expressed in transfected cells; host or cells: HTLA cells expressing TEV fused-beta-Arrestin2

Q: NCc1ccc(C(=O)N[C@@H]2CC[C@H]3[C@H]4Cc5ccc(O)c6c5[C@@]3(CCN4CC3CC3)[C@H]2O6)cc1 [MP1209, 4-(aminomethyl)-N-((4R,4aR,7R,7aR,12bS)-3-(cyclopropylmethyl)-9-hydroxy-2,3,4,4a,5,6,7,7a-octahydro-1H-4,12-methano[1]benzofuro[3,2-e]isoquinolin-7-yl)benzamide] was tested. Which “arrestin recruitment at hMOR” value (hMOR [1]; Tango) did it give?
A: null arrestin recruitment; also recorded: no arrestin recruitment was observed

Q: And the “Gi pEC50±SEM hMOR” value (hMOR [2])?
A: 9.61±0.04

Q: And the Emax (hMOR [2])?
A: 98.5 ± 0.96%

Q: What about the EC50 (hMOR [2]) of the same compound?
A: 0.25 nM

Q: What about the Emax (hKOR [3]) of the same compound?
A: 100 ± 1.23%

Q: What about the “Gi pEC50±SEM hKOR” value (hKOR [3]; cAMP inhibition) of the same compound?
A: 10.6±0.05

Q: And the “Bias factor toward G protein, hKOR” value (hKOR [3])?
A: 0.6

Q: What about the EC50 (hKOR [3]; cAMP inhibition, read-out: Gi EC50 hKOR) of the same compound?
A: 0.024 nM

Q: What about the Emax (hKOR [4]) of the same compound?
A: 67 ± 3%

Q: And the “Arrestin pEC50±SEM hKOR” value (hKOR [4])?
A: 9.43±0.19

Q: And the EC50 (hKOR [4])?
A: 0.37 nM

Q: Which results are given for O=C(N[C@@H]1CC[C@H]2[C@H]3Cc4ccc(O)c5c4[C@@]2(CCN3CC2CC2)[C@H]1O5)c1cccc(CO)c1 [MP1210, N-((4R,4aR,7R,7aR,12bS)-3-(cyclopropylmethyl)-9-hydroxy-2,3,4,4a,5,6,7,7a-octahydro-1H-4,12-methano[1]benzofuro[3,2-e]isoquinolin-7-yl)-3-(hydroxymethyl)benzamide]?
A: arrestin recruitment at hMOR (hMOR [1]; Tango): null arrestin recruitment; also recorded: no arrestin recruitment was observed; Gi pEC50±SEM hMOR (hMOR [2]): 9.81±0.05; Emax (hMOR [2]): 94.6 ± 0.98%; EC50 (hMOR [2]): 0.15 nM; Emax (hKOR [3]): 101 ± 1.1%; Gi pEC50±SEM hKOR (hKOR [3]; cAMP inhibition): 10.6±0.05; Bias factor toward G protein, hKOR (hKOR [3]): 1.2; Emax (hKOR [4]): 63 ± 3.3%; Arrestin pEC50±SEM hKOR (hKOR [4]): 8.94±0.17

Q: CO[C@@]12CC[C@@H](NC(=O)c3cccc(I)c3)C3Oc4c(O)ccc5c4[C@@]31CCN(CC1CC1)C2C5 (stereo partly drawn) [MP1305, N-((4aS,7R,12bS)-3-(Cyclopropylmethyl)-9-hydroxy-4a-methoxy-2,3,4,4a,5,6,7,7a-octahydro-1H-4,12-methanobenzofuro[3,2-e]isoquinolin-7-yl)-3-iodobenzamide] was tested. Which Ki (mMOR [5]) did it give?
A: 0.25 ± 0.02 nM

Q: And the Emax (hMOR [1])?
A: 21 ± 3%

Q: And the “Arrestin pEC50±SEM hMOR” value (hMOR [1]; Tango)?
A: 7.8±0.3

Q: And the EC50 (hMOR [1]; Tango)?
A: 16.4 nM

Q: And the Ki (mDOR [6])?
A: 11.7 ± 1.4 nM

Q: And the Emax (mDOR [7])?
A: 22 ± 0.9%

Q: And the EC50 (mDOR [7]; [35S]GTPγS, nM ± SEM)?
A: 31.7 ± 3.6 nM

Q: And the “Bias factor toward G protein, hMOR” value (hMOR [2])?
A: 11

Q: And the “Gi pEC50±SEM hMOR” value (hMOR [2])?
A: 9.9±0.12

Q: And the Emax (hMOR [2])?
A: 69 ± 1.8%

Q: What about the EC50 (hMOR [2]) of the same compound?
A: 0.12 nM

Q: What about the “arrestin recruitment at rKOR” value [8] of the same compound?
A: no arrestin recruitment was observed

Q: And the EC50 (hDOR [9]; hDOR)?
A: 74.2 nM

Q: What about the “cAMP inhibition pEC50 ± SEM” value (hDOR [9]; hDOR) of the same compound?
A: 7.1 ± 0.08

Q: What about the Emax (hDOR [9]; read-out: cAMP inhibition Emax % ± SEM) of the same compound?
A: 71 ± 2.4%

Q: And the “Gi pEC50±SEM rKOR” value ([10]; BRET)?
A: 8.3±0.32

Q: And the Emax ([10]; read-out: Gi Emax rKOR)?
A: 35 ± 3%

Q: And the “Gi pEC50±SEM mMOR” value [11]?
A: 9.1±0.12

Q: And the EC50 ([11]; read-out: Gi EC50 mMOR)?
A: 0.74 nM

Q: And the Emax ([11]; read-out: Gi Emax mMOR)?
A: 72 ± 2%

Q: What about the “arrestin recruitment at mMOR” value [12] of the same compound?
A: no arrestin recruitment was observed

Q: And the Emax (hKOR [3])?
A: 102 ± 1.2%

Q: And the “Gi pEC50±SEM hKOR” value (hKOR [3]; cAMP inhibition)?
A: 9.14±0.05

Q: And the “Bias factor toward G protein, hKOR” value (hKOR [3])?
A: 4

Q: What about the Emax (mKOR [13]) of the same compound?
A: 42.2 ± 5.3%

Q: And the EC50 (mKOR [13]; [35S]GTPγS, nM ± SEM)?
A: 7.4 ± 1.8 nM

Q: What about the EC50 ([14]; mDOR, BRET) of the same compound?
A: 40.4 nM

Q: What about the “G-Protein activation pEC50 ± SEM” value ([14]; mDOR, BRET) of the same compound?
A: 7.4 ± 0.20

Q: What about the Emax ([14]; read-out: G-Protein activation Emax % ± SEM) of the same compound?
A: 105 ± 5.9%

Q: And the Emax (mMOR [15])?
A: 81.2 ± 16%

Q: What about the EC50 (mMOR [15]; [35S]GTPγS, nM ± SEM) of the same compound?
A: 0.7 ± 0.1 nM

Q: And the Ki (mKOR [16])?
A: 2.5 ± 0.3 nM

Q: What about the “Arrestin recruitment pEC50 ± SEM” value (hDOR [17]; hDOR, Tango) of the same compound?
A: 6.6 ± 0.06

Q: What about the EC50 (hDOR [17]; hDOR, Tango) of the same compound?
A: 228 nM

Q: What about the Emax (hDOR [17]; read-out: Arrestin recruitment Emax % ± SEM) of the same compound?
A: 89 ± 2.8%

Q: And the Emax (hKOR [4])?
A: 75 ± 1%

Q: And the “Arrestin pEC50±SEM hKOR” value (hKOR [4])?
A: 7.6±0.04

Q: What about the EC50 (hKOR [4]) of the same compound?
A: 25.7 nM
